These results are taken from patent US11891350B2, “Compounds for use in the treatment or prophylaxis of pain, inflammation and/or autoimmunity” (NOVAREMED LTD., priority 2019, dated 2024).

Data set [1] is described as follows: Bioavailability and pharmacokinetics of polymorphs 1 and 2 after single oral dose, cross-over, in dogs. It is filed as in vivo, male Beagle dog. Conditions: for LS geometric mean Cmax: corrected to a 60.0-mg dose; for adverse reactions to the oral administration: single oral dose 60 mg/kg. As for the experimental part: This study was designed to obtain blood plasma samples to enable the comparison of the bioavailability and pharmacokinetics of two different polymorphs 1 and 2 following single-dose oral administration to six dogs. A cross-over design was used with three dogs treated according to sequence 1 (polymorph 2 after 1) and three dogs according to sequence 2 (polymorph 1 after 2) with a one-week washout period between treatments.
Each polymorph was prepared as a suspension in a vehicle of 0.5% w/v HPMC K15M/0.5% w/v Tween 80 in sterile water.
Six male Beagle dogs (Tattoo numbers: 4986, 0964, 3611, 2380, 5002 and 1122 on-study animal numbers: 001 M, 002M, 003M, 004M, 005M and 006M, respectively) bodyweight 9.5-11.5 kg, aged 2-7 years at dosing, currently held as part of a colony of animals (Colony number: 190431) were used on this study. Dogs were originally obtained from Marshall Farms USA Inc. (NY, USA) or Envigo RMS, and were bred for use in scientific procedures. During pre-trial and on-study periods, the animals were group-housed in caging appropriate to the species. Prior to acceptance for use on study, animals were subject to a veterinary examination and the results found to be satisfactory. Holding and study areas had automatic control of light cycles and temperature. Light hours were 0700-1900 h. Ranges of temperature and humidity measured during the study were 17.0-21.8° C. and 23.4-83.07%, respectively. All animals were weighed prior to each dose administration and the bodyweights recorded. With the exception of a period of fasting from overnight predose until 4 hours post dose, a daily allowance of 200-300 g of standard laboratory diet of known formulation (SDS D3 (E) SQC) was available. Mains quality tap water was available ad libitum.
The formulation was always prepared on the morning of dose administration. Each polymorph was prepared as a suspension at a concentration of 12 mg/mL in a vehicle of 0.5% w/v HPMC K15M/0.5% w/v Tween 80 in sterile water for injection. The required volume of vehicle was added to an appropriate formulation container.
Each group of 3 male dogs, received a single oral dose administration of a polymorph at a target dose level of 60 mg/kg. Following a wash out period of 1 week each group of 3 male dogs received the alternative polymorph.
For each group, whole blood samples (ca 1.0 mL) were collected from the jugular veins in to NaF/EDTA tubes at the following time points:
Times given above were target times which were adhered to as closely as possible. Actual times of sample collection (and of dosing) were recorded (Table 2) and used in the evaluation of pharmacokinetic parameters. Immediately following collection, blood samples were placed on wet ice. As soon as practically possible the blood samples were centrifuged (+4° C., 1500 g, 10 min). The resulting plasma was divided into two aliquots (vial A: 100 μl plasma, vial B: remaining volume) and stored in appropriately labelled polypropylene tubes in a freezer set to maintain a temperature of −80° C. until shipment. All plasma samples, remaining dose formulation and dose aliquots were stored in a freezer set to maintain a temperature of −80° C. until shipment.
Pharmacokinetic (PK) parameters were estimated using Phoenix pharmacokinetic software using a non-compartmental approach consistent with the oral route of administration. All parameters were generated from polymorph 1 and 2 individual concentrations in plasma. Parameters were estimated using nominal sampling times relative to the start of each dose administration within an allowable deviation range (±10%). Predose samples below the limit of quantification (0.5 ng/mL) were assumed to be 0 for the PK analysis.
The area under the polymorph 1 and 2 plasma concentration versus time curve (AUC) was calculated using the linear trapezoidal method with linear interpolation. […]

A further data set deals with BLK tyrosine kinase (Homo sapiens, UniProt P51451). The data set can be described thus: Effect on BLK tyrosine kinase activity. It is filed as biochemical.
The next data set has as its target LynA tyrosine kinase (Homo sapiens, UniProt P07948). The data set can be described thus: Effect on LynA tyrosine kinase activity. It is filed as biochemical.
The next data set deals with LynB tyrosine kinase (Homo sapiens, UniProt P07948). The data set can be described thus: Effect on LynB tyrosine kinase activity. Type of data set: biochemical.
Data set [2] is described as follows: Gravimetric Vapour Sorption (GVS). The conditions noted are these: for change of polymorphic form on GVS cycling: hysteresis between cycles / XRPD after the cycles; for weight gain to 80% RH (GVS): first adsorption cycle. Type of data set: physicochemical. As for the experimental part:
Gravimetric Vapour Sorption (GVS)
Approximately 10 mg of sample was placed into a wire-mesh vapour sorption balance pan and loaded into an ‘IgaSorp’ vapour sorption balance (Hiden Analytical Instruments). The sample was then dried by maintaining a 0% humidity environment until no further weight change was recorded. Subsequently, the sample was subjected to a ramping profile from 0-90% RH at 10% RH increments, maintaining the sample at each step until equilibration had been attained (99% step completion). Upon reaching equilibration, the % RH within the apparatus was ramped to the next step and the equilibration procedure repeated. After completion of the sorption cycle, the sample was then dried using the same procedure. The weight change during the sorption/desorption cycles were then monitored, allowing for the hygroscopic nature of the sample to be determined.

Where [3] appears, read: male Beagle dog plasma, oral suspension, target 60 mg/kg.

Where two headings read alike, the source gives them in different places.

Chain of LynB tyrosine kinase (P07948 1-491 isoform P07948-2): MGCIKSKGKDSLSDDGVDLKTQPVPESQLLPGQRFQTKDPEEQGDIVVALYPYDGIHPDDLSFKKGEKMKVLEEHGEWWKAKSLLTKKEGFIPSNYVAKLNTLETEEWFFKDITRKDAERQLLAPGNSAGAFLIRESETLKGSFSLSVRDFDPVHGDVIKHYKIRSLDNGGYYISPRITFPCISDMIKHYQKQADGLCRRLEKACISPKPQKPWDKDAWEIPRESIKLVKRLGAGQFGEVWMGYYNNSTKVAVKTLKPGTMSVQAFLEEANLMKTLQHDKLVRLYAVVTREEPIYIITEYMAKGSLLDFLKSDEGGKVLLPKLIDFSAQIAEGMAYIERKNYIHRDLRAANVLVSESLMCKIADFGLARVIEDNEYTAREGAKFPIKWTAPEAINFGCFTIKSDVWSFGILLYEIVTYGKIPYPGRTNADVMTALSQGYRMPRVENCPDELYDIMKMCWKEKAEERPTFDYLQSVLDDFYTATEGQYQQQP
Chain of LynA tyrosine kinase (P07948 whole entry): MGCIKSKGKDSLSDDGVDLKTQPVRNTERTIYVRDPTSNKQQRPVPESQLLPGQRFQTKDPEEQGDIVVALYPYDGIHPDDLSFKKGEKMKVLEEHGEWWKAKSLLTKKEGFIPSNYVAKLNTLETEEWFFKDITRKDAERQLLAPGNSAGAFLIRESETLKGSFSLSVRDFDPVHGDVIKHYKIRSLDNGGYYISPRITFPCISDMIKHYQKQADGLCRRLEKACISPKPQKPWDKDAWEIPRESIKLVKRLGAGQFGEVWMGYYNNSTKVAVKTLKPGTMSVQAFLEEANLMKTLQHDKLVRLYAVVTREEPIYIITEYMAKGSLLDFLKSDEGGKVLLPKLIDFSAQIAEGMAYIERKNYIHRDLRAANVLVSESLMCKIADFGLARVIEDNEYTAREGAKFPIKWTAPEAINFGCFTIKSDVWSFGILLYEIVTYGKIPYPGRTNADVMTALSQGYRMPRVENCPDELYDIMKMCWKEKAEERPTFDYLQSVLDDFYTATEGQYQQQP
Chain of BLK tyrosine kinase (P51451 whole entry): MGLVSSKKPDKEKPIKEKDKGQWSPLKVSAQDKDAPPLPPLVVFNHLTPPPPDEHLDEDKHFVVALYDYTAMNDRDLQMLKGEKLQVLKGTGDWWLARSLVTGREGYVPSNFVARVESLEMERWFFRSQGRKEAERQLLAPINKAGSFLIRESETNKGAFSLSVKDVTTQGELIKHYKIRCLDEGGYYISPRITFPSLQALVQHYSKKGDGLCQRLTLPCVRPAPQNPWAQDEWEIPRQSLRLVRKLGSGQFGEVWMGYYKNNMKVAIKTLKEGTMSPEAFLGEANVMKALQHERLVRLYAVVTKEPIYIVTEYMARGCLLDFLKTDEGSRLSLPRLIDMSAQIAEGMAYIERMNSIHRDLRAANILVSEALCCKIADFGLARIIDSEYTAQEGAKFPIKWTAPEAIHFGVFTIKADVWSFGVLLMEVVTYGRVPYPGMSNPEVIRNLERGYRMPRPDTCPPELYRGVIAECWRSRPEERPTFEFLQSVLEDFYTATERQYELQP

Consider `C[C@H](O)COC[C@H](Cc1ccc(O)cc1)NC(=O)CCc1ccccc1` [NRD135S.E1, (S,S)-2-N(3-O-(propan-2-ol)-1-propyl-4-hydroxybenzene)-3-phenylpropylamide], for which, in data set [1] (male Beagle dog, oral 60 mg/kg), the “extrapolated part of AUC(0-∞)” value is listed as “no more than 6%”. Also, in data set [1] (plasma, male Beagle dog, oral 60 mg/kg, terminal decline, read-out: estimated mean half-life), the half-life is 3 to 4 h. For the same molecule, at BLK tyrosine kinase, the “effect on activity of BLK tyrosine kinase” value is “capable of activating”. In addition, the “effect on activity of LynA tyrosine kinase” value at LynA tyrosine kinase is “capable of activating”. The “effect on activity of LynB tyrosine kinase” value on LynB tyrosine kinase is “no or substantially no effect”.
`C[C@H](O)COC[C@H](Cc1ccc(O)cc1)NC(=O)CCc1ccccc1` [polymorph 1, (S,S)-2-N(3-O-(propan-2-ol)-1-propyl-4-hydroxybenzene)-3-phenylpropylamide]: in data set [2], the “hygroscopicity (GVS, in words)” value is “hygroscopic”; the “change of polymorphic form on GVS cycling” value is listed as “hinted towards form change”; the “weight gain to 80% RH (GVS)” value was 5.6%. Also, in data set [2] (second adsorption cycle, RH of 40%), the “weight increase in second adsorption cycle (GVS)” value is reported as > 2%. For the same molecule, in data set [2] (to 70% RH), the “weight increase to 70% RH (GVS)” value was ~1.3%. In addition, the “LS geometric mean Cmax” value in data set [1] (setting [3]) came out at 4986 ng/mL. The “adverse reactions to the oral administration” value in data set [1] (male Beagle dog) was “No adverse reactions”. Moreover, in data set [1] (male, Beagle, dog, plasma, po, 60 mg/kg, male Beagle dog plasma, oral suspension, target 60 mg/kg, corrected to a 60.0 mg dose, read-out: LS geometric mean AUC(0-∞)), the AUC(0-inf) was 13200 ng·h/mL.
With `C[C@H](O)COC[C@H](Cc1ccc(O)cc1)NC(=O)CCc1ccccc1` [polymorph 2, (S,S)-2-N(3-O-(propan-2-ol)-1-propyl-4-hydroxybenzene)-3-phenylpropylamide], in data set [2], the “hygroscopicity (GVS, in words)” value is listed as “only slightly hygroscopic” and the “weight gain to 80% RH (GVS)” value is recorded as 0.6%. Besides, the “overall weight loss by the end of the two adsorption/desorption cycles (GVS)” value in data set [2] (after two adsorption/desorption cycles) is ~1%. Further, in data set [2] (listed as Form 2), the “change of polymorphic form on GVS cycling” value is reported as “no change of polymorphic form”; the “hygroscopicity (GVS, in words)” value is “only slightly hygroscopic”; the “weight gain to 80% RH (GVS)” value is reported as 0.6%. For the same molecule, the “bioavailability (in words)” value in data set [1] (dog bioavailability tests) is given as “exceptionally high”. Besides, the “LS geometric mean AUC(0-∞)” value in data set [1] (male Beagle dog plasma, oral suspension, target 60 mg/kg, corrected to a 60.0 mg dose) was found to be 20064 ng·h/mL. Further, the “LS geometric mean Cmax” value in data set [1] (setting [3]) is reported as 11088 ng/mL. Further, the “geometric mean ratio (polymorph 2/polymorph 1) of AUC(0-∞)” value in data set [1] (male Beagle dog, oral, dose-corrected, 90% CI 1.35, 1.71) is reported as 1.52. In addition, the “geometric mean ratio (polymorph 2/polymorph 1) of Cmax” value in data set [1] (male Beagle dog, oral, dose-corrected, 90% CI 1.84, 2.70) was found to be 2.22. Moreover, the “adverse reactions to the oral administration” value in data set [1] (male Beagle dog) is listed as “No adverse reactions”.

For orientation: half-life means the time in which the quantity being followed falls by half.
